Measured values from ChEMBL document CHEMBL4392848, “Proline-based hydroxamates targeting the zinc-dependent deacetylase LpxC: Synthesis, antibacterial properties, and docking studies” (Bioorg Med Chem, 2019).
In brackets after ≈: the same amount, converted by molar mass. Activity calls are given as the source filed them. The calls are words filed in the database; no cut-off is given here.

How the values were obtained:
Enterobacter cloacae = assay: Antibacterial activity against Enterobacter cloacae assessed as diameter of inhibition zone measured after 24 hrs by agar disc diffusion method; type: functional
Citrobacter freundii = assay: Antibacterial activity against Citrobacter freundii assessed as diameter of inhibition zone measured after 24 hrs by agar disc diffusion method; type: functional
[1] = target: Matrix metalloproteinase-9 (Homo sapiens, UniProt P14780); assay: Inhibition of human MMP9 using (7-methoxycoumarin-4-yl)acetyl-Pro-Leu-Gly-Leu-(3-(2,4-dinitrophenyl)-L-2,3-diamino-propionyl)Ala-Arg-NH2 as substrate preincubated for 30 mins followed by substrate addition and measured by fluorescence assay
Proteus mirabilis = assay: Antibacterial activity against Proteus mirabilis assessed as diameter of inhibition zone measured after 24 hrs by agar disc diffusion method; type: functional
Proteus vulgaris = assay: Antibacterial activity against Proteus vulgaris assessed as diameter of inhibition zone measured after 24 hrs by agar disc diffusion method; type: functional
Escherichia coli [2] = assay: Antibacterial activity against Escherichia coli BL21(DE3) measured after 20 hrs by microdilution method; type: functional
Neutrophil collagenase = Neutrophil collagenase (Homo sapiens, UniProt P22894); assay: Inhibition of human MMP8 using (7-methoxycoumarin-4-yl)acetyl-Pro-Leu-Gly-Leu-(3-(2,4-dinitrophenyl)-L-2,3-diamino-propionyl)Ala-Arg-NH2 as substrate preincubated for 30 mins followed by substrate addition and measured by fluorescence assay
[3] = target: 72 kDa type IV collagenase (Homo sapiens, UniProt P08253); assay: Inhibition of human MMP2 using (7-methoxycoumarin-4-yl)acetyl-Pro-Leu-Gly-Leu-(3-(2,4-dinitrophenyl)-L-2,3-diamino-propionyl)Ala-Arg-NH2 as substrate preincubated for 30 mins followed by substrate addition and measured by fluorescence assay
Escherichia coli [4] = assay: Antibacterial activity against Escherichia coli D22 measured after 20 hrs by microdilution method; type: functional; settings: D22, 20 h
Klebsiella aerogenes = assay: Antibacterial activity against Enterobacter aerogenes assessed as diameter of inhibition zone measured after 24 hrs by agar disc diffusion method; type: functional
Pseudomonas aeruginosa = assay: Antibacterial activity against Pseudomonas aeruginosa assessed as diameter of inhibition zone measured after 24 hrs by agar disc diffusion method; type: functional
Klebsiella oxytoca = assay: Antibacterial activity against Klebsiella oxytoca assessed as diameter of inhibition zone measured after 24 hrs by agar disc diffusion method; type: functional
Escherichia coli [5] = assay: Antibacterial activity against Escherichia coli BL21(DE3) assessed as diameter of inhibition zone measured after overnight incubation by agar disc diffusion method; type: functional
[6] = Inhibition of Escherichia coli LpxC C63A mutant using UDP-3-O-[(R)-3-hydroxymyristoyl]-N-acetylglucosamine as substrate measured after 30 mins by fluorescence based microplate assay
Klebsiella pneumoniae = assay: Antibacterial activity against Klebsiella pneumoniae assessed as diameter of inhibition zone measured after 24 hrs by agar disc diffusion method; type: functional
Escherichia coli [7] = assay: Antibacterial activity against Escherichia coli D22 assessed as diameter of inhibition zone measured after overnight incubation by agar disc diffusion method; type: functional
Collagenase 3 = Collagenase 3 (Homo sapiens, UniProt P45452); assay: Inhibition of human MMP13 using (7-methoxycoumarin-4-yl)acetyl-Pro-Leu-Gly-Leu-(3-(2,4-dinitrophenyl)-L-2,3-diamino-propionyl)Ala-Arg-NH2 as substrate preincubated for 30 mins followed by substrate addition and measured by fluorescence assay
[8] = Selectivity ratio of IC50 for human MMP9 to IC50 for human MMP13; type: ADME
[9] = Selectivity ratio of IC50 for human MMP8 to IC50 for human MMP13; type: ADME
MMP-2/MMP-9 = MMP-2/MMP-9 (Homo sapiens, UniProt P08253+P14780); assay: Selectivity ratio of IC50 for human MMP9 to IC50 for human MMP2; type: ADME
[10] = Selectivity ratio of IC50 for human MMP8 to IC50 for human MMP2; type: ADME
Escherichia coli [11] = assay: Inhibition of Escherichia coli LpxC C63A mutant at 200 uM using UDP-3-O-[(R)-3-hydroxymyristoyl]-N-acetylglucosamine as substrate measured after 30 mins by fluorescence based microplate assay

Sequence of Neutrophil collagenase (P22894 whole entry): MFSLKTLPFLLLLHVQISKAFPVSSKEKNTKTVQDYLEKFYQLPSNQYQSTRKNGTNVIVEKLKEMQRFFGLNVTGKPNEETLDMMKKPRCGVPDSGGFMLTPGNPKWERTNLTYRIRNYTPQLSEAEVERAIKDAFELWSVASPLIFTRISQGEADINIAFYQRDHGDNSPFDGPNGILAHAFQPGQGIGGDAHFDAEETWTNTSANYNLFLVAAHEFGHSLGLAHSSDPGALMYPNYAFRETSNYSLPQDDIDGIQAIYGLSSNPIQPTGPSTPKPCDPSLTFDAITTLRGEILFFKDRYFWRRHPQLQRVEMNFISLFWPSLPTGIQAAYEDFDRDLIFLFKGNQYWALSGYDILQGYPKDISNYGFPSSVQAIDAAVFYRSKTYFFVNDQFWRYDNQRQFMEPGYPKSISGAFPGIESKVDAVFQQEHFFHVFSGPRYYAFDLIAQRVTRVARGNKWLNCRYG
Sequence of Matrix metalloproteinase-9 (P14780 whole entry, the tested form may be a part): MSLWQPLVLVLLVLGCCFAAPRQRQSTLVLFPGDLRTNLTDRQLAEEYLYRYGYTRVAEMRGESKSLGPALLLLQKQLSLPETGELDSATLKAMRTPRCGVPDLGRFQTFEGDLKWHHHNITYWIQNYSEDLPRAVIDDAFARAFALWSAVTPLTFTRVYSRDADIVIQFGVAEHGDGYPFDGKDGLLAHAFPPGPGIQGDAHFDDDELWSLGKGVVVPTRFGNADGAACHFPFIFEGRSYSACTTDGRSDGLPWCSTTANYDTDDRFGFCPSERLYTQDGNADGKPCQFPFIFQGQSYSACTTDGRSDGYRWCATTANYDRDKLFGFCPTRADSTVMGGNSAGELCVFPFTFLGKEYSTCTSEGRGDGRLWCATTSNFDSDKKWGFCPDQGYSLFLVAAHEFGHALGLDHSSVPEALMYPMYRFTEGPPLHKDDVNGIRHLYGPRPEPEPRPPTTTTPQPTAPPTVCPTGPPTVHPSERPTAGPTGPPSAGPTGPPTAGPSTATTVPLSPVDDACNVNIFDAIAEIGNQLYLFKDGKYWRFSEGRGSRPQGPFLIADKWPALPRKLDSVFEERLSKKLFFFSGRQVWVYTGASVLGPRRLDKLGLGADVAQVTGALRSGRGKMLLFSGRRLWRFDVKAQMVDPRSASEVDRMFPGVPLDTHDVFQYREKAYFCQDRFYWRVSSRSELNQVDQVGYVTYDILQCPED
Sequence of 72 kDa type IV collagenase (P08253 whole entry): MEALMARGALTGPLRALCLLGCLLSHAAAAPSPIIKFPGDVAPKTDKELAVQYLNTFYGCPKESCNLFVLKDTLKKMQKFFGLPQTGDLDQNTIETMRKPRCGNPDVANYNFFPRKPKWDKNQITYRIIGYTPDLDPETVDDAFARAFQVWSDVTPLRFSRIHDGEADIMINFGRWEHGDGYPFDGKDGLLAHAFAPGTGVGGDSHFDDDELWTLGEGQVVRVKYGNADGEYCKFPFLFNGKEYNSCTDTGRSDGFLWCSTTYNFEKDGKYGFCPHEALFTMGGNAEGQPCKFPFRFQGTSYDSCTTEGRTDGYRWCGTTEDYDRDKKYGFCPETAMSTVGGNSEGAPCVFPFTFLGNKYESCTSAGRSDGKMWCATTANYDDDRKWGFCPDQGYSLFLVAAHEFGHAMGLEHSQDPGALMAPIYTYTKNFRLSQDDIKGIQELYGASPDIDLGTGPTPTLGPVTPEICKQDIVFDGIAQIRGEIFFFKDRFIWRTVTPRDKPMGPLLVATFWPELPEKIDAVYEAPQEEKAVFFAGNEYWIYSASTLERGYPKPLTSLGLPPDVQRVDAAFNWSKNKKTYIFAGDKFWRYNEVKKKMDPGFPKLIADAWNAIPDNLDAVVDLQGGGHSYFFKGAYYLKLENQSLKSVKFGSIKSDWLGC

CCCCCc1ccc(C#Cc2ccc(C(=O)N3C[C@@H](O)C[C@H]3C(=O)NO)cc2)cc1
diameter of the inhibition zone (DIZ) (Enterobacter cloacae): <6 mm
diameter of the inhibition zone (DIZ) (Citrobacter freundii): 7 mm
IC50 [1]: 120 nM
diameter of the inhibition zone (DIZ) (Proteus mirabilis): 7 mm
diameter of the inhibition zone (DIZ) (Proteus vulgaris): 8 mm
MIC (Escherichia coli [2]): > 256 µM
IC50 (Neutrophil collagenase): 15 nM
IC50 [3]: 3 nM
MIC (Escherichia coli [4]): > 128 µM
diameter of the inhibition zone (DIZ) (Klebsiella aerogenes): <6 mm
diameter of the inhibition zone (DIZ) (Pseudomonas aeruginosa): <6 mm
diameter of the inhibition zone (DIZ) (Klebsiella oxytoca): 7 mm
diameter of the inhibition zone (DIZ) (Escherichia coli [5]): <6 mm
IC50 [6]: > 200000 nM
Ki [6]: > 27600 nM
diameter of the inhibition zone (DIZ) (Klebsiella pneumoniae): <6 mm
diameter of the inhibition zone (DIZ) (Escherichia coli [7]): 8 mm
IC50 (Collagenase 3): 0.7 nM

O=C(NO)[C@@H]1[C@H](O)[C@H](O)CN1C(=O)c1ccc(C#Cc2ccc(CN3CCOCC3)cc2)cc1
IC50 [1]: 1800 nM
MIC (Escherichia coli [2]): 128 µM (≈ 59.6 µg/mL)
IC50 (Neutrophil collagenase): 172 nM
IC50 [3]: 32 nM
MIC (Escherichia coli [4]): 16 µM (≈ 7.45 µg/mL)
Ratio IC50 [8]: 51
Ratio IC50 [9]: 4 to 5
Ratio IC50 (MMP-2/MMP-9): 51
diameter of the inhibition zone (DIZ) (Escherichia coli [5]): <6 mm
IC50 [6]: 2500 nM
Ki [6]: 340 nM
diameter of the inhibition zone (DIZ) (Escherichia coli [7]): 18 mm
Ratio IC50 [10]: 4 to 5
IC50 (Collagenase 3): 39 nM

O=C(NO)[C@@H]1C[C@@H](O)CN1C(=O)c1ccc(C#Cc2ccc(CN3CCOCC3)cc2)cc1
diameter of the inhibition zone (DIZ) (Enterobacter cloacae): <6 mm
diameter of the inhibition zone (DIZ) (Citrobacter freundii): 10 mm
IC50 [1]: 9000 nM
diameter of the inhibition zone (DIZ) (Proteus mirabilis): 9 mm
diameter of the inhibition zone (DIZ) (Proteus vulgaris): <6 mm
MIC (Escherichia coli [2]): > 256 µM
IC50 (Neutrophil collagenase): 2000 nM
IC50 [3]: 1000 nM
MIC (Escherichia coli [4]): 16 µM (≈ 7.19 µg/mL)
diameter of the inhibition zone (DIZ) (Klebsiella aerogenes): 16 mm
diameter of the inhibition zone (DIZ) (Pseudomonas aeruginosa): <6 mm
diameter of the inhibition zone (DIZ) (Klebsiella oxytoca): <6 mm
diameter of the inhibition zone (DIZ) (Escherichia coli [5]): 7.5 mm
IC50 [6]: 47900 nM
Ki [6]: 6600 nM
diameter of the inhibition zone (DIZ) (Klebsiella pneumoniae): 9 mm
diameter of the inhibition zone (DIZ) (Escherichia coli [7]): 20.7 mm
IC50 (Collagenase 3): 1000 nM

O=C(NO)[C@@H]1C[C@@H](O)CN1Cc1ccc(C#Cc2ccc(CN3CCOCC3)cc2)cc1
diameter of the inhibition zone (DIZ) (Enterobacter cloacae): <6 mm
diameter of the inhibition zone (DIZ) (Citrobacter freundii): <6 mm
IC50 [1]: > 10000 nM
diameter of the inhibition zone (DIZ) (Proteus mirabilis): <6 mm
diameter of the inhibition zone (DIZ) (Proteus vulgaris): <6 mm
MIC (Escherichia coli [2]): > 256 µM
IC50 (Neutrophil collagenase): > 10000 nM
IC50 [3]: > 10000 nM
MIC (Escherichia coli [4]): 8 µM (≈ 3.48 µg/mL)
diameter of the inhibition zone (DIZ) (Klebsiella aerogenes): <6 mm
diameter of the inhibition zone (DIZ) (Pseudomonas aeruginosa): <6 mm
diameter of the inhibition zone (DIZ) (Klebsiella oxytoca): <6 mm
diameter of the inhibition zone (DIZ) (Escherichia coli [5]): 12.3 mm
IC50 [6]: 62100 nM
Ki [6]: 8600 nM
diameter of the inhibition zone (DIZ) (Klebsiella pneumoniae): 7 mm
diameter of the inhibition zone (DIZ) (Escherichia coli [7]): 21 mm
IC50 (Collagenase 3): > 10000 nM

O=C(NO)[C@@H]1C[C@H](O)CN1C(=O)c1ccc(C#Cc2ccc(CN3CCOCC3)cc2)cc1
diameter of the inhibition zone (DIZ) (Enterobacter cloacae): 8 mm
diameter of the inhibition zone (DIZ) (Citrobacter freundii): 12 mm
IC50 [1]: 1000 nM
diameter of the inhibition zone (DIZ) (Proteus mirabilis): 11 mm
diameter of the inhibition zone (DIZ) (Proteus vulgaris): 9 mm
MIC (Escherichia coli [2]): > 256 µM
IC50 (Neutrophil collagenase): 198 nM
IC50 [3]: 55 nM
MIC (Escherichia coli [4]): 16 µM (≈ 7.19 µg/mL)
diameter of the inhibition zone (DIZ) (Klebsiella aerogenes): 15 mm
diameter of the inhibition zone (DIZ) (Pseudomonas aeruginosa): <6 mm
diameter of the inhibition zone (DIZ) (Klebsiella oxytoca): 8 mm
diameter of the inhibition zone (DIZ) (Escherichia coli [5]): 11.3 mm
IC50 [6]: 29500 nM
Ki [6]: 4100 nM
diameter of the inhibition zone (DIZ) (Klebsiella pneumoniae): 10 mm
diameter of the inhibition zone (DIZ) (Escherichia coli [7]): 19.5 mm
IC50 (Collagenase 3): 57 nM

O=C(NO)[C@H]1[C@H](O)[C@H](O)CN1C(=O)c1ccc(C#Cc2ccc(CN3CCSCC3)cc2)cc1
diameter of the inhibition zone (DIZ) (Enterobacter cloacae): <6 mm
diameter of the inhibition zone (DIZ) (Citrobacter freundii): <6 mm
IC50 [1]: > 10000 nM
diameter of the inhibition zone (DIZ) (Proteus mirabilis): <6 mm
diameter of the inhibition zone (DIZ) (Proteus vulgaris): <6 mm
MIC (Escherichia coli [2]): > 256 µM
IC50 [3]: > 10000 nM
MIC (Escherichia coli [4]): 128 µM (≈ 61.6 µg/mL)
diameter of the inhibition zone (DIZ) (Klebsiella aerogenes): <6 mm
diameter of the inhibition zone (DIZ) (Pseudomonas aeruginosa): <6 mm
diameter of the inhibition zone (DIZ) (Klebsiella oxytoca): 7 mm
inhibition (Escherichia coli [11]): inactive
diameter of the inhibition zone (DIZ) (Escherichia coli [5]): <6 mm
IC50 [6]: > 200000 nM
Ki [6]: > 27600 nM
diameter of the inhibition zone (DIZ) (Klebsiella pneumoniae): <6 mm
diameter of the inhibition zone (DIZ) (Escherichia coli [7]): 8.3 mm
IC50 (Collagenase 3): 5000 nM

O=C(NO)[C@H]1[C@H](O)[C@H](O)CN1C(=O)c1ccc(C#Cc2ccc(CN3CCOCC3)cc2)cc1
diameter of the inhibition zone (DIZ) (Enterobacter cloacae): <6 mm
diameter of the inhibition zone (DIZ) (Citrobacter freundii): <6 mm
IC50 [1]: > 10000 nM
diameter of the inhibition zone (DIZ) (Proteus mirabilis): <6 mm
diameter of the inhibition zone (DIZ) (Proteus vulgaris): <6 mm
MIC (Escherichia coli [2]): > 256 µM
IC50 (Neutrophil collagenase): > 10000 nM
IC50 [3]: > 10000 nM
MIC (Escherichia coli [4]): > 256 µM
diameter of the inhibition zone (DIZ) (Klebsiella aerogenes): <6 mm
diameter of the inhibition zone (DIZ) (Pseudomonas aeruginosa): <6 mm
diameter of the inhibition zone (DIZ) (Klebsiella oxytoca): 8 mm
inhibition (Escherichia coli [11]): inactive
diameter of the inhibition zone (DIZ) (Escherichia coli [5]): <6 mm
IC50 [6]: > 200000 nM
Ki [6]: > 27600 nM
diameter of the inhibition zone (DIZ) (Klebsiella pneumoniae): <6 mm
diameter of the inhibition zone (DIZ) (Escherichia coli [7]): <6 mm
IC50 (Collagenase 3): 4320 nM
